In the test the target is T1, human PAD4 (Homo sapiens, UniProt Q9UM07).
T1 construct: human PAD4 (NM_012387), A2P663, was PCR amplified; His-SUMO (N, cleaved yes); made in house; host or cells: E. coli BL21(DE3)
In words: In vitro PAD4 BAEE biochemical assay. The note with it: human PAD4, BAEE substrate; 5 nM PAD4, 2 mM calcium chloride, 3 mM BAEE; geometric mean of multiple experiments. The protocol: The PCR product was ligated into linearized pET-SUMO vector (Invitrogen, Carlsbad, CA), which is part of the Champion™ pET SUMO Protein Expression System. After sequence verification for the correct orientation, the pET-SUMO-hPAD4 expression plasmid was transformed into BL21(DE3) cells.
E. Coli BL21(DE3) cells were inoculated in LB medium with kanamycin at 37° C. until A600 nm reached about 0.5. Protein expression was induced by addition of 0.5 mM IPTG (final) and continued overnight at 16° C. at 220 rpm.
Cells were harvested by centrifugation at 5000 rpm for 10 minutes at 4° C. The pellet was resuspended in 300 ml lysis buffer (20 mM Tris-HCl, pH 8.0, 1 mM EDTA, 500 mM NaCl, 1 mM (tris(2-carboxyethyl)phosphine) (TCEP), 10% glycerol, and 1% Triton X100 and EDTA free protease inhibitor) and lysed by 3× passage through a microfluidizer (Microfluidics, Newton, MA) at 18,000 psi. The cell lysate was clarified by centrifugation at 30,000 rpm for 60 minutes at 4° C. […] Bound protein was eluted with a 0-100% linear gradient of 100 mL Ni-B buffer (Ni A buffer+0.5 M Imidazole).
The protein was then reloaded onto a Ni—HP column for a reverse purification step and recovered in flow through fraction. The protein with His-Sumo tag removed was then polished using a 16/60 Superdex-200 gel filtration column with gel filtration buffer (20 mM Tris pH 8.0, NaCl 400 mM and 1 mM TCEP). The fractions containing the protein were pulled and frozen at −80° C.
The enzymatic activity of human PAD4 was monitored in a biochemical assay in the presence or absence of compounds using the small peptidyl arginine mimic BAEE (Na-Benzoyl-L-arginine ethyl ester hydrochloride) as substrate. PAD4 activity led to deamination of BAEE and release of ammonia. Levels of ammonia were monitored by using an amine coupling reaction and were indicative of PAD4 enzymatic activity.
One hundred nanoliters of test compounds dissolved in DMSO at various concentrations were dispensed into a 384-well black OptiPlate using a Labcyte Echo instrument. Ten microliters of a solution of recombinant PAD4 and calcium chloride diluted in PAD4 assay buffer (50 mM MOPS [3-(N-morpholino) propanesulfonic acid], pH 7.6; 50 mM sodium chloride; 0.05% Tween-20; 2 mM dithiothreitol) was added to the compound-containing plate and was incubated for 30 minutes at 25° C. Ten microliters of a solution of BAEE (Sigma-Aldrich #B4500) diluted in PAD4 assay buffer was then added to start the reaction. Final concentrations were 5 nM PAD4, 2 mM calcium chloride, and 3 mM BAEE. The reaction mixture was incubated at 25° C. for 2 hours and was stopped with the addition of 10 microliters of a solution of 75 mM EDTA (Ethylenediaminetetraacetic acid) in PAD4 assay buffer. Thirty microliters of detection solution (5 mM o-phthalaldehyde, 50 mM MOPS [3-(N-morpholino) propanesulfonic acid], pH 7.6; 50 mM sodium chloride; 0.05% Tween-20; 5 mM dithiothreitol) was then added and the reaction was incubated for 1 hour at 25° C.

T1 sequence (Q9UM07 2-663): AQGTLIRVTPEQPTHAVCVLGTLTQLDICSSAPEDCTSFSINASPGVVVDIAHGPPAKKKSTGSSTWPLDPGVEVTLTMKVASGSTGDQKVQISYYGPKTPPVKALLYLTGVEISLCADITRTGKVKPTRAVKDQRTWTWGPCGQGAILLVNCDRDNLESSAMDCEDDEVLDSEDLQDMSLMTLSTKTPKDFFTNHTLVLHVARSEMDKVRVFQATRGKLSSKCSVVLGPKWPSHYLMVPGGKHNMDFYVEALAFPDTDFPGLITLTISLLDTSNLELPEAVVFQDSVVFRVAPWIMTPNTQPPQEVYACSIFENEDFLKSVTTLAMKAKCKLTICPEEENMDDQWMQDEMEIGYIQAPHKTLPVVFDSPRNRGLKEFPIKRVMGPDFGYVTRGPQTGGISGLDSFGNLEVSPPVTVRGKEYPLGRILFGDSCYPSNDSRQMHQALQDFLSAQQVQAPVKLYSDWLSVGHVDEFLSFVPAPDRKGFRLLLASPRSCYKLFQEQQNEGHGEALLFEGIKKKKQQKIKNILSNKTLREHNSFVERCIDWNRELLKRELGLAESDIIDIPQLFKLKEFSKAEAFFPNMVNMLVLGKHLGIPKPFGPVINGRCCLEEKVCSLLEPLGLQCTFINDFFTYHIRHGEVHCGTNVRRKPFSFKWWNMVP

For orientation: IC50 means the concentration at which inhibition is half-maximal. Take “3-[(1~{R})-1-[2-[7- [(1~{R},2~{R},4~{S})-2- amino-7- azabicyclo[2.2.1]heptane-7- carbonyl]-3-cyclopropyl-5- methoxyimidazo [1,2-a]pyridin-2-yl]-1- (cyclopropylmethyl)pyrrolo [2,3-b]pyridin-6-yl]ethyl]-1- [(6-methoxypyridin-2- yl)methyl]-1-methylurea [Example 219]”: the half-inhibitory concentration (IC50) was 124 nM. As for `CCC1C(N)C2CCC1N2C(=O)c1cc(OC)n2c(C)c(-c3cc4ccc(N(C(F)F)S(C)(=O)=O)nc4n3CC3CC3)nc2c1` (single isomer, unassigned) [Example 346], the half-inhibitory concentration (IC50) came out at 2130 nM.

Regarding `CCC1C(N)C2CCC1N2C(=O)c1cc(OC)n2c(C)c(-c3cc4ccc(N(C(F)F)S(C)(=O)=O)nc4n3CC3CC3)nc2c1` (single isomer, unassigned) [Example 347], the IC50 was found to be 10100 nM. Next, `COc1cc(C(=O)N2C[C@H]3CC[C@@H]2[C@H](N)C3)cc2nc(-c3cc4ccc(N(C(F)F)S(C)(=O)=O)nc4n3CC3CC3)c(C)n12` (single isomer, unassigned) [Example 369, ~{N}-[2-[7-[(1~{S},4~{R}, 6~{R})-6-amino-2-azabicyclo[2.2.2]octane-2-carbonyl]-5-methoxy-3-methylimidazo[1,2-a]pyridin-2-yl]-1-(cyclopropylmethyl)pyrrolo [2,3-b]pyridin-6-yl]-~{N}-(difluoromethyl) methanesulfonamide]: 13600 nM; `COc1cc(C(=O)N2CC[C@@H]3CCNC[C@@H]32)cc2nc(-c3cc4ccc(N(C(F)F)S(C)(=O)=O)nc4n3CC3CC3)c(C)n12` (single isomer, unassigned) [Example 417]: 7180 nM; `COc1cc(C(=O)N2[C@H]3CC[C@@H]2[C@H](N)C3)cc2nc(-c3cc4ccc([C@@H](C)NC(=O)c5cn(C)nn5)nc4n3CC3CC3)c(C)n12` [Example 1, ~{N}-[(1~{R})-1-[2-[7-[(1~{R},2~{R},4~{S})-2-amino-7-azabicyclo[2.2.1]heptane-7-carbonyl]-5-methoxy-3-methylimidazo [1,2-a]pyridin-2-yl]-1-(cyclopropylmethyl)pyrrolo [2,3-b]pyridin-6-yl]ethyl]-1-methyltriazole-4-carboxamide]: 85.7 nM. Consider `COc1cc(C(=O)N2C[C@@H]3CC[C@H]2CN3)cc2nc(-c3cc4ccc([C@@H](C)NC(=O)C56CC(F)(C5)C6)nc4n3CC3CC3)c(C)n12` [Example 3, ~{N}-[(1~{R})-1-[1-(cyclopropylmethyl)-2-[7-[(1~{S},4~{S})-2,5-diazabicyclo[2.2.2]octane-2-carbonyl]-5-methoxy-3-methylimidazo[1,2-a]pyridin-2-yl]pyrrolo [2,3-b]pyridin-6-yl]ethyl]-3-fluorobicyclo [1.1.1] pentane-1-carboxamide], for which the IC50 worked out at 11000 nM. In the case of `COc1cc(C(=O)N2CCC3(CCCCN3)C2)cc2nc(-c3cc4ccc([C@@H](C)NC(=O)C56CC(F)(C5)C6)nc4n3CC3CC3)c(C)n12` (stereo partly drawn) [Example 4, ~{N}-[(1~{R})-1-[1-(cyclopropylmethyl)-2-[7-(2,6-diazaspiro [4.5]decane-2-carbonyl)-5-methoxy-3-methylimidazo[1,2-a]pyridin-2-yl]pyrrolo[2,3-b]pyridin-6-yl]ethyl]-3-fluorobicyclo[1.1.1] pentane-1-carboxamide], the 50% inhibitory concentration (IC50) amounted to 23400 nM. Next, `COc1cc(C(=O)N2CCC3(CCCNC3)C2)cc2nc(-c3cc4ccc([C@@H](C)NC(=O)C56CC(F)(C5)C6)nc4n3CC3CC3)c(C)n12` (stereo partly drawn) [Example 5, ~{N}-[(1~{R})-1-[1-(cyclopropylmethyl)-2-[7-(2,9-diazaspiro[4.5]decane-2-carbonyl)-5-methoxy-3-methylimidazo[1,2-a]pyridin-2-yl]pyrrolo [2,3-b]pyridin-6-yl]ethyl]-3-fluorobicyclo[1.1.1] pentane-1-carboxamide]: 19000 nM. For `COc1cc(C(=O)N2[C@H]3CC[C@@H]2[C@H](N)C3)cc2nc(-c3cc4ccc([C@@H](C)NC(=O)C(C)C(F)(F)F)nc4n3CC3CC3)c(C)n12` (stereo partly drawn) [Example 7, ~{N}-[(1~{R})-1-[2-[7-[(1~{R},2~{R},4~{S})-2-amino-7-azabicyclo [2.2.1]heptane-7-carbonyl]-5-methoxy-3-methylimidazo [1,2-a]pyridin-2-yl]-1-(cyclopropylmethyl)pyrrolo[2,3-b]pyridin-6-yl]ethyl]-3,3,3-trifluoro-2-methylpropanamide] the value was 127 nM; for `COc1cc(C(=O)N2[C@H]3CC[C@@H]2[C@H](N)C3)cc2nc(-c3cc4ccc([C@@H](C)NC(=O)[C@H]5[C@@H]6CC(F)(F)C[C@@H]65)nc4n3CC3CC3)c(C)n12` [Example 8, (1~{R},5~{S})-~{N}-[(1~{R})-1-[2-[7-[(1~{R}, 2~{R},4~{S})-2-amino-7-azabicyclo[2.2.1]heptane-7-carbonyl]-5-methoxy-3-methylimidazo [1,2-a]pyridin-2-yl]-1-(cyclopropylmethyl)pyrrolo[2,3-b]pyridin-6-yl]ethyl]-3,3-difluorobicyclo[3.1.0] hexane-6-carboxamide], 144 nM.

Turning to `COc1cc(C(=O)N2CCC[C@@H](N)C2)cc2nc(-c3cc4ccc([C@@H](C)NC(=O)[C@H]5[C@@H]6CC(F)(F)C[C@@H]65)nc4n3CC3CC3)c(C)n12` [Example 9, (1~{R},5~{S})-~{N}-[(1~{R})-1-[2-[7-[(3~{R})-3-aminopiperidine-1-carbonyl]-5-methoxy-3-methylimidazo[1,2-a]pyridin-2-yl]-1-(cyclopropylmethyl)pyrrolo[2,3-b]pyridin-6-yl]ethyl]-3,3-difluorobicyclo[3.1.0] hexane-6-carboxamide], the half-maximal inhibitory concentration (IC50) came to 28 nM.

Turning to `COc1cc(C(=O)N2[C@H]3CC[C@@H]2[C@H](N)C3)cc2nc(-c3cc4ccc([C@@H](C)NC(=O)c5ccccc5C(F)(F)F)nc4n3CC3CC3)c(C)n12` [Example 10, ~{N}-[(1~{R})-1-[2-[7-[(1~{R},2~{R},4~{S})-2-amino-7-azabicyclo [2.2.1]heptane-7-carbonyl]-5-methoxy-3-methylimidazo [1,2-a]pyridin-2-yl]-1-(cyclopropylmethyl)pyrrolo[2,3-b]pyridin-6-yl]ethyl]-2-(trifluoromethyl) benzamide], the IC50 came to 259 nM. Next, `COc1cc(C(=O)N2[C@H]3CC[C@@H]2[C@H](N)C3)cc2nc(-c3cc4ccc([C@@H](C)NC(=O)c5ccccc5C(F)F)nc4n3CC3CC3)c(C)n12` [Example 11, ~{N}-[(1~{R})-1-[2-[7-[(1~{R},2~{R},4~{S})-2-amino-7-azabicyclo [2.2.1]heptane-7-carbonyl]-5-methoxy-3-methylimidazo [1,2-a]pyridin-2-yl]-1-(cyclopropylmethyl)pyrrolo[2,3-b]pyridin-6-yl]ethyl]-2-(difluoromethyl) benzamide]: 253 nM; `CCC1CC[C@@H]2CCN(C(=O)c3cc(OC)n4c(C)c(-c5cc6ccc([C@@H](C)NC(=O)C78CC(F)(C7)C8)nc6n5CC5CC5)nc4c3)C[C@@H]2N1` (stereo partly drawn) [Example 12, ~{N}-[(1~{R})-1-[2-[7-[(4~{a}~{R}, 8~{a}~{R})-2-ethyl-2,3,4,4~{a}, 5,6,8,8~{a}-octahydro-1~{H}-1,7-naphthyridine-7-carbonyl]-5-methoxy-3-methylimidazo[1,2-a]pyridin-2-yl]-1-(cyclopropylmethyl)pyrrolo[2,3-b]pyridin-6-yl]ethyl]-3-fluorobicyclo[1.1.1] pentane-1-carboxamide]: 29100 nM.

The values above are taken from US12240862B2, “Inhibitors of peptidylarginine deiminases” (Gilead Sciences, Inc., priority 2020, dated 2025).
